Reference: article PMC12649549, “Sequence Permutation Generated Lysine and Tryptophan-Rich Antimicrobial Peptides with Enhanced Therapeutic Index” (Antibiotics, 2025)

The substances below were run on S. aureus ATCC 33592. Conditions: LYM broth, 0 mM NaCl; 16 h, 37 °C.
Protocol: (§1) The antibacterial and salt-resistant activity of the peptides was tested using Escherichia coli (ATCC 25922), Pseudomonas aeruginosa Migula (ATCC 27853), Acinetobacter sp. (BCRC number 14B0091, BCRC number 14B0097, and BCRC number 14B0100), and Staphylococcus aureus sp. strains (ATCC 25923, ATCC 33591, ATCC 33592, ATCC 33593, and ATCC 6538). All bacteria were obtained from the Food Industry Research and Development Institute (Hsinchu, Taiwan) and cultured in sterilized Müller-Hinton (MH) broth at 37 °C and 200 rpm for 8 h. The inoculum concentrations were determined by measuring the optical density at 600 nm (OD 600 = 1, approximately 10^8 CFU/mL) using an Ultrospec 2100 pro UV-Visible spectrophotometer (Biochrom Ltd., Cambridge, UK) after 8 h of culture.
The antibacterial activities of the peptides in Müller-Hinton (MH) broth and modified LYM broth were determined using the standard broth microdilution method as per Clinical and Laboratory Standards Institute (CLSI) guidelines. The LYM broth was prepared with specific components and adjusted to different conditions, including varying concentrations of NaCl and MgCl2, and different pH levels. To prepare the LYM broth, 5.4 mM KCl, 5.6 mM Na2HPO4, 0.5 mM MgSO4, and 1.0 mM sodium citrate were added. Additionally, 0.4 mg of ZnCl2, 2.0 mg of FeCl3·6H2O, 0.1 mg of CuSO4·5H2O, 0.1 mg of MnSO4·H2O, 0.1 mg of Na2B4O7∙10H2O, 700 mg of amino acid mixtures without tryptophan (Takara Bio Inc., San Jose, CA, USA), and 20 mg of L-tryptophan were added per liter of medium. The pH was adjusted to 7.4, and a vitamin mixture (100X, Sigma) and glucose concentration of 2% were added. […] Bacterial strains were incubated in MH broth overnight, regrown, and diluted to a final concentration of 5 × 10^5 CFU/mL. Peptides were added to each well at final concentrations of 50, 25, 12.5, 6.25, 3.13, 1.56, and 0.78 µg/mL, and 99 µL of diluted microbes was loaded into each well of a polypropylene 96-well plate. […] The Morpheus HeatMap software (https://software.broadinstitute.org/morpheus/) was used to display MIC values on a color scale. All experiments were independently repeated three times.
Work on Ac-KKWRKWLKWLAKK-NH2 [W5K/A9W] yielded an MIC of 3.13 µg/mL.

Same assay, conditions: LYM broth, 0.5 mM MgCl2
Ac-KKWRKWLKWLAKK-NH2 [W5K/A9W] gave an MIC of 3.13 µg/mL.

Same assay, conditions: LYM broth, 1.5 mM MgCl2
Ac-KKWRKWLKWLAKK-NH2 [W5K/A9W] showed an MIC of 3.13 µg/mL.

Same assay, conditions: LYM broth, 2.5 mM MgCl2
Work on Ac-KKWRKWLKWLAKK-NH2 [W5K/A9W] yielded an MIC of 3.13 µg/mL.

Same assay, conditions: LYM broth, 50 mM NaCl; 16 h, 37 °C
Substance Ac-KKWRKWLKWLAKK-NH2 [W5K/A9W] has an MIC of 3.13 µg/mL.

Same assay, conditions: LYM broth, 100 mM NaCl; 16 h, 37 °C
Substance Ac-KKWRKWLKWLAKK-NH2 [W5K/A9W] has an MIC of 3.13 µg/mL.

Same assay, conditions: LYM broth, 200 mM (NaCl); 16 h, 37 °C
In the case of Ac-KKWRKWLKWLAKK-NH2 [W5K/A9W], the MIC is reported as 6.25 µg/mL.

Same assay, conditions: LYM broth, 300 mM (NaCl); 16 h, 37 °C
For Ac-KKWRKWLKWLAKK-NH2 [W5K/A9W], the MIC was 12.5 µg/mL.

Same assay, conditions: LYM broth, pH 4.5
Ac-KKWRKWLKWLAKK-NH2 [W5K/A9W] showed an MIC of 3.13 µg/mL.

Same assay, conditions: LYM broth, pH 5.5
Substance Ac-KKWRKWLKWLAKK-NH2 [W5K/A9W] has an MIC of 3.13 µg/mL.

Same assay, conditions: LYM broth, pH 6.5
Substance Ac-KKWRKWLKWLAKK-NH2 [W5K/A9W] has an MIC of 3.13 µg/mL.

Same assay, conditions: MH broth; 5 × 10^5 CFU/mL, 16 h, 37 °C; repeated three times
In the case of Ac-KKWRKWLKWLAKK-NH2 [W5K/A9W], the MIC is reported as 12.5 µg/mL.

These substances were tested on A. baumannii 14B00100 (Acinetobacter sp., BCRC number 14B0100). Conditions: LYM broth, 0 mM NaCl; 16 h, 37 °C.
Protocol: as §1
(§2) The antibacterial activities of the peptides in Müller-Hinton (MH) broth and modified LYM broth were determined using the standard broth microdilution method as per Clinical and Laboratory Standards Institute (CLSI) guidelines. The LYM broth was prepared with specific components and adjusted to different conditions, including varying concentrations of NaCl and MgCl2, and different pH levels. To prepare the LYM broth, 5.4 mM KCl, 5.6 mM Na2HPO4, 0.5 mM MgSO4, and 1.0 mM sodium citrate were added. Additionally, 0.4 mg of ZnCl2, 2.0 mg of FeCl3·6H2O, 0.1 mg of CuSO4·5H2O, 0.1 mg of MnSO4·H2O, 0.1 mg of Na2B4O7∙10H2O, 700 mg of amino acid mixtures without tryptophan (Takara Bio Inc., San Jose, CA, USA), and 20 mg of L-tryptophan were added per liter of medium. The pH was adjusted to 7.4, and a vitamin mixture (100X, Sigma) and glucose concentration of 2% were added. For different conditions of LYM broth, NaCl concentrations of 300, 200, 150, and 50 mM, MgCl2 concentrations of 2.5, 1.5, and 0.5 mM, and pH levels of 6.5, 5.5, and 4.5 were adjusted. Bacterial strains were incubated in MH broth overnight, regrown, and diluted to a final concentration of 5 × 10^5 CFU/mL. Peptides were added to each well at final concentrations of 50, 25, 12.5, 6.25, 3.13, 1.56, and 0.78 µg/mL, and 99 µL of diluted microbes was loaded into each well of a polypropylene 96-well plate. […] The Morpheus HeatMap software (https://software.broadinstitute.org/morpheus/) was used to display MIC values on a color scale. All experiments were independently repeated three times.
Ac-KKWRKWLKWLAKK-NH2 [W5K/A9W] showed an MIC of 1.56 µg/mL.

Same assay, conditions: LYM broth, 0.5 mM MgCl2
For Ac-KKWRKWLKWLAKK-NH2 [W5K/A9W], the MIC was 1.56 µg/mL.

Same assay, conditions: LYM broth, 1.5 mM MgCl2
With Ac-KKWRKWLKWLAKK-NH2 [W5K/A9W] the MIC was 1.56 µg/mL.

Same assay, conditions: LYM broth, 2.5 mM MgCl2
For Ac-KKWRKWLKWLAKK-NH2 [W5K/A9W], the MIC was 1.56 µg/mL.

Same assay, conditions: LYM broth, 50 mM NaCl; 16 h, 37 °C
Substance Ac-KKWRKWLKWLAKK-NH2 [W5K/A9W] has an MIC of 1.56 µg/mL.

Same assay, conditions: LYM broth, 100 mM NaCl; 16 h, 37 °C
With Ac-KKWRKWLKWLAKK-NH2 [W5K/A9W] the MIC was 1.56 µg/mL.

Same assay, conditions: LYM broth, 200 mM (NaCl); 16 h, 37 °C
Substance Ac-KKWRKWLKWLAKK-NH2 [W5K/A9W] has an MIC of 1.56 µg/mL.

Same assay, conditions: LYM broth, 300 mM (NaCl); 16 h, 37 °C
Work on Ac-KKWRKWLKWLAKK-NH2 [W5K/A9W] yielded an MIC of 1.56 µg/mL.

Same assay, conditions: LYM broth, pH 4.5
Ac-KKWRKWLKWLAKK-NH2 [W5K/A9W] showed an MIC of 1.56 µg/mL.

Same assay, conditions: LYM broth, pH 5.5
Substance Ac-KKWRKWLKWLAKK-NH2 [W5K/A9W] has an MIC of 1.56 µg/mL.

Same assay, conditions: LYM broth, pH 6.5
For Ac-KKWRKWLKWLAKK-NH2 [W5K/A9W], the MIC was 1.56 µg/mL.

Same assay, conditions: MH broth; 5 × 10^5 CFU/mL, 16 h, 37 °C; repeated three times
Ac-KKWRKWLKWLAKK-NH2 [W5K/A9W] showed an MIC of 1.56 µg/mL.

What follows are substances tested on Pseudomonas aeruginosa Migula (ATCC 27853). Conditions: LYM broth, 0 mM NaCl; 16 h, 37 °C.
Protocol: as §1, §2
Ac-KKWRKWLKWLAKK-NH2 [W5K/A9W] gave an MIC of 1.56 µg/mL.
